The text below walks through data of patent publication US8536336B2, “Prodrug compounds useful as cannabinoid ligands” (AbbVie Inc., priority 2009, dated 2013).

Values after ≈ are worked out from the molar mass of the structure shown.

Data set [1] can be described thus: Solubility of prodrug in water or 0.1 N aqueous HCl (HPLC of filtrate). To be noted: thermodynamic from solid.
Description: (§1) Approximately 3 mg of prodrug was weighed into a vial and 750 μL of water or 0.1 N aqueous HCl was added. The mixtures were vortexed to wet the solids. The mixtures were equilibrated for 1 hour with gentle agitation in a constant temperature water bath (T=25° C. for water samples and T=37° C. for 0.1 N HCl samples). After equilibration, the mixtures were visually inspected to assure that the amount of excess solid was sufficient to permit re-characterization. If not, solubility was reported as greater than the weighed concentration of prodrug (concentrations were confirmed by HPLC). The solid phase was then separated from the liquid phase by filtration through a 13 mm 0.45 μm GHP syringe filter (Pall Corporation). The filtrate was diluted as needed for quantification of the material studied by HPLC, and the concentration of the filtrate was reported as the solubility of the prodrug in the given medium.
Data set [2] can be described thus: In vivo regeneration of the parent compound after oral dosing of prodrug (plasma, HPLC-MS/MS). Particulars: rat, oral aqueous formulation by gavage, blood samples for 24 hours. Details: species or system Sprague-Dawley rats. As for the experimental part:
Male Sprague-Dawley rats, weighing 250-400 g, were obtained from Charles Rivers Laboratories. For the initial screening, each prodrug was evaluated in one group of three rats. All rats received an oral aqueous formulation (suspension or solution), administered by gavage. Sequential blood samples were obtained from a tail vein of each animal for 24 hours after dosing. Plasma was separated by centrifugation and stored frozen until analysis. Compounds were selectively removed from the plasma using protein precipitation followed by reverse phase HPLC with MS/MS detection for quantitation. Attempts were made to measure both the prodrug and the parent compounds in each sample.

A short description of data set [3]: physchem. Particulars: thermodynamic from solid.
Description: as §1
Setting [4] is: 0.1 N aqueous HCl, 37 °C, simulated gastric fluid.

Turning to `CCCCn1/c(=N/C(=O)c2cc(C(F)(F)F)ccc2OC[C@H](C)O)sc2cc[n+](COC(C)=O)cc21.[Br-]` [Example 1, (2Z)-5-[(acetyloxy)methyl]-3-butyl-2-{[2-{[(2S)-2-hydroxypropyl]oxy}-5-(trifluoromethyl)benzoyl]imino}-2,3-dihydro[1,3]thiazolo[4,5-c]pyridin-5-ium bromide], the solubility (in general, the concentration that dissolves in the medium under given conditions) at 1 h in data set [1] (setting [4]) is 2500 µg/mL; in data set [1] (water, 25 °C) it was 1800 µg/mL.
For `CCCCn1/c(=N/C(=O)c2cc(C(F)(F)F)ccc2OC[C@H](C)OP(=O)(O)O)sc2ccncc21` [Example 9, (1S)-2-[2-({[(2Z)-3-butyl[1,3]thiazolo[4,5-c]pyridin-2(3H)-ylidene]amino}carbonyl)-4-(trifluoromethyl)phenoxy]-1-methylethyl dihydrogen phosphate] the same measures were 7 µg/mL and 830 µg/mL.
As for `CCCCn1/c(=N/C(=O)c2cc(C(F)(F)F)ccc2OC[C@H](C)OC(=O)NCCN(C)C)sc2ccncc21` [Example 15, (1S)-2-[2-({[(2Z)-3-butyl[1,3]thiazolo[4,5-c]pyridin-2(3H)-ylidene]amino}carbonyl)-4-(trifluoromethyl)phenoxy]-1-methylethyl 2-(dimethylamino)ethylcarbamate], in data set [2], the “Parent (Example 18) detected in plasma after dosing the prodrug” value is given as “Measurable concentrations” and the “Prodrug detected in plasma after dosing the prodrug” value is recorded as “Measurable concentrations”. Also, the solubility at 1 h in data set [1] (setting [4]) is greater than 4000 µg/mL. In addition, the solubility at 1 h in data set [1] (water, 25 °C) was found to be 680 µg/mL (≈ 1200 µM).
On to `CCCCn1/c(=N/C(=O)c2cc(C(F)(F)F)ccc2OC[C@H](C)O)sc2cc[n+](COC(=O)N(C)C)cc21.[Cl-]` [Example 8, (2Z)-3-butyl-5-({[(dimethylamino)carbonyl]oxy}methyl)-2-{[2-{[(2S)-2-hydroxypropyl]oxy}-5-(trifluoromethyl)benzoyl]imino}-2,3-dihydro[1,3]thiazolo[4,5-c]pyridin-5-ium chloride], for which the solubility at 1 h was greater than 4000 µg/mL in data set [1] (setting [4]) and 3900 µg/mL in data set [1] (water, 25 °C).
For `CCCCn1/c(=N/C(=O)c2cc(C(F)(F)F)ccc2OC[C@H](C)OC(=O)C(C)(C)N)sc2ccncc21` [Example 2, (1S)-2-[2-({[(2Z)-3-butyl[1,3]thiazolo[4,5-c]pyridin-2(3H)-ylidene]amino}carbonyl)-4-(trifluoromethyl)phenoxy]-1-methylethyl 2-methylalaninate] the same measures were 4100 µg/mL (≈ 7610 µM) and 2300 µg/mL (≈ 4270 µM).
For the compound `CCCCn1/c(=N/C(=O)c2cc(C(F)(F)F)ccc2OC[C@H](C)OC(=O)CN)sc2ccncc21` [Example 3, (1S)-2-[2-({[(2Z)-3-butyl[1,3]thiazolo[4,5-c]pyridin-2(3H)-ylidene]amino}carbonyl)-4-(trifluoromethyl)phenoxy]-1-methylethyl glycinate], the solubility at 1 h was 1200 µg/mL (≈ 2350 µM) in data set [3] (25 °C, water) and greater than 4100 µg/mL in data set [3] (37 °C, simulated gastric fluid).
`CCCCn1/c(=N/C(=O)c2cc(C(F)(F)F)ccc2OC[C@H](C)O)sc2cc[n+]([O-])cc21` [Example 12, N-[(2Z)-3-butyl-5-oxido[1,3]thiazolo[4,5-c]pyridin-2(3H)-ylidene]-2-{[(2S)-2-hydroxypropyl]oxy}-5-(trifluoromethyl)benzamide]: in data set [2], the “Parent (Example 18) detected in plasma after dosing the prodrug” value is on record as “Measurable concentrations” and the “Prodrug detected in plasma after dosing the prodrug” value is on record as “Measurable concentrations”.
Consider `CCCCn1/c(=N/C(=O)c2cc(C(F)(F)F)ccc2OC[C@H](C)OC(=O)CCC(=O)O)sc2ccncc21` [Example 14, 4-({(1S)-2-[2-({[(2Z)-3-butyl[1,3]thiazolo[4,5-c]pyridin-2(3H)-ylidene]amino}carbonyl)-4-(trifluoromethyl)phenoxy]-1-methylethyl}oxy)-4-oxobutanoic acid], for which the solubility at 1 h in data set [3] (25 °C, water) was 73 µg/mL (≈ 132 µM); in data set [3] (37 °C, simulated gastric fluid), 10 µg/mL (≈ 18.1 µM).
Regarding `CCCCn1/c(=N/C(=O)c2cc(C(F)(F)F)ccc2OC[C@H](C)O)sc2cc[n+](COC(=O)N3CCC[C@H]3C(=O)OC)cc21.[Cl-]` [Example 7, (2Z)-3-butyl-2-{[2-{[(2S)-2-hydroxypropyl]oxy}-5-(trifluoromethyl)benzoyl]imino}-5-[({[(2S)-2-(methoxycarbonyl)pyrrolidin-1-yl]carbonyl}oxy)methyl]-2,3-dihydro[1,3]thiazolo[4,5-c]pyridin-5-ium chloride], the solubility at 1 h in data set [1] (setting [4]) is greater than 4300 µg/mL; in data set [1] (water, 25 °C) it was greater than 4300 µg/mL.
Consider `CCCCn1/c(=N/C(=O)c2cc(C(F)(F)F)ccc2OC[C@H](C)O)sc2ccncc21` [Example 18, N-[(2Z)-3-butyl[1,3]thiazolo[4,5-c]pyridin-2(3H)-ylidene]-2-{[(2S)-2-hydroxypropyl]oxy}-5-(trifluoromethyl)benzamide], for which the solubility at 1 h in data set [1] (setting [4]) was 4.3 µg/mL (≈ 9.48 µM); in data set [1] (water, 25 °C), less than 0.02 µg/mL.
For `CCCCn1/c(=N/C(=O)c2cc(C(F)(F)F)ccc2OC[C@H](C)O)sc2cc[n+](COC(=O)C(C)(C)C)cc21.[Cl-]` [Example 4, (2Z)-3-butyl-5-{[(2,2-dimethylpropanoyl)oxy]methyl}-2-{[2-{[(2S)-2-hydroxypropyl]oxy}-5-(trifluoromethyl)benzoyl]imino}-2,3-dihydro[1,3]thiazolo[4,5-c]pyridin-5-ium chloride] the same measures were 200 µg/mL and 3300 µg/mL.
Taken in the same sequence, the figures for `CCCCn1/c(=N/C(=O)c2cc(C(F)(F)F)ccc2OC[C@H](C)O)sc2cc[n+](COC(=O)c3ccccc3)cc21.[Cl-]` [Example 5, (2Z)-5-[(benzoyloxy)methyl]-3-butyl-2-{[2-{[(2S)-2-hydroxypropyl]oxy}-5-(trifluoromethyl)benzoyl]imino}-2,3-dihydro[1,3]thiazolo[4,5-c]pyridin-5-ium chloride] were 16 µg/mL and 740 µg/mL.
Taken in the same sequence, the figures for `CCCCn1/c(=N/C(=O)c2cc(C(F)(F)F)ccc2OC[C@H](C)OC(=O)[C@H](C)N)sc2ccncc21` [Example 6, (1S)-2-[2-({[(2Z)-3-butyl[1,3]thiazolo[4,5-c]pyridin-2(3H)-ylidene]amino}carbonyl)-4-(trifluoromethyl)phenoxy]-1-methylethyl L-alaninate] were greater than 4100 µg/mL and 2300 µg/mL (≈ 4380 µM).
